From PubChem BioAssay (NCI)
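Tested at 5 concentrations; 48 h exposure; 96-well plates; endpoints linearly interpolated, else capped at highest concentration. At the GI50, growth is halved. TGI denotes the concentration required for complete inhibition of growth.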

What was measured:
Experiment in all cases: growth of human tumour cells (NCI), 48 h
A549 NSCLC = test system: A549 NSCLC
CAKI-1 renal = test system: CAKI-1 renal
HCC-2998 colon = test system: HCC-2998 colon
HCT-15 colon = test system: HCT-15 colon
HOP-92 NSCLC = test system: HOP-92 NSCLC
M14 melanoma = test system: M14 melanoma
SF-539 CNS = test system: SF-539 CNS
SK-MEL-28 melanoma = test system: SK-MEL-28 melanoma
SK-MEL-5 melanoma = test system: SK-MEL-5 melanoma
SK-OV-3 ovarian = test system: SK-OV-3 ovarian

SMILES: Cc1ccc(S(=O)(=O)n2cc(C#N)c(C#N)c2)cc1
- TGI (A549 NSCLC): 78.9 µM
- TGI (CAKI-1 renal): 59.1 µM
- TGI (HCC-2998 colon): 48.2 µM
- TGI (HCT-15 colon): 59 µM
- TGI (HOP-92 NSCLC): 88 µM
- TGI (M14 melanoma): 47.7 µM
- TGI (SF-539 CNS): 39.9 µM
- TGI (SK-MEL-28 melanoma): 30.8 µM
- TGI (SK-MEL-5 melanoma): 42 µM
- TGI (SK-OV-3 ovarian): 91.9 µM

SMILES: COC(=O)c1c(C)nc(C)c(NO)c1-c1ccccc1C(F)(F)F
- TGI (A549 NSCLC): > 100 µM
- TGI (CAKI-1 renal): 43.3 µM
- TGI (HCC-2998 colon): > 100 µM
- TGI (HCT-15 colon): 32.3 µM
- TGI (HOP-92 NSCLC): 29 µM
- TGI (M14 melanoma): 39.5 µM
- TGI (SF-539 CNS): 38.6 µM
- TGI (SK-MEL-28 melanoma): 38.1 µM
- TGI (SK-MEL-5 melanoma): > 100 µM
- TGI (SK-OV-3 ovarian): > 100 µM

SMILES: CCOP(=O)(OCC)/C(C#N)=C/c1cccn1Cc1ccccc1
- TGI (A549 NSCLC): > 100 µM
- TGI (CAKI-1 renal): > 100 µM
- TGI (HCC-2998 colon): > 100 µM
- TGI (HCT-15 colon): > 100 µM
- TGI (HOP-92 NSCLC): 36.9 µM
- TGI (M14 melanoma): > 100 µM
- TGI (SF-539 CNS): 36.1 µM
- TGI (SK-MEL-28 melanoma): 39.5 µM
- TGI (SK-MEL-5 melanoma): 32.5 µM
- TGI (SK-OV-3 ovarian): > 100 µM

SMILES: O=C(Nc1cccc(-n2cc(-c3ccncc3)c(-c3ccc(O)c(Cl)c3)n2)c1)c1cccc(C(F)(F)F)c1
- GI50 (A549 NSCLC): 2.5 µM
- TGI (A549 NSCLC): > 100 µM
- GI50 (CAKI-1 renal): 2.83 µM
- TGI (CAKI-1 renal): > 100 µM
- GI50 (HCC-2998 colon): 4.37 µM
- TGI (HCC-2998 colon): > 100 µM
- GI50 (HCT-15 colon): 1.98 µM
- TGI (HCT-15 colon): > 100 µM
- GI50 (HOP-92 NSCLC): 0.434 µM
- TGI (HOP-92 NSCLC): 4.11 µM
- GI50 (M14 melanoma): 2.72 µM
- TGI (M14 melanoma): > 100 µM
- GI50 (SF-539 CNS): 3.27 µM
- TGI (SF-539 CNS): > 100 µM
- GI50 (SK-MEL-28 melanoma): 4.63 µM
- TGI (SK-MEL-28 melanoma): > 100 µM
- GI50 (SK-MEL-5 melanoma): 2.38 µM
- TGI (SK-MEL-5 melanoma): 16.2 µM
- GI50 (SK-OV-3 ovarian): 99.1 µM
- TGI (SK-OV-3 ovarian): > 100 µM

SMILES: CN(C)C(=S)Oc1ccc2ccc(=O)oc2c1
- TGI (A549 NSCLC): > 100 µM
- TGI (CAKI-1 renal): > 100 µM
- TGI (HCC-2998 colon): > 100 µM
- TGI (HCT-15 colon): > 100 µM
- TGI (HOP-92 NSCLC): > 100 µM
- TGI (M14 melanoma): > 100 µM
- TGI (SF-539 CNS): > 100 µM
- TGI (SK-MEL-28 melanoma): > 100 µM
- TGI (SK-MEL-5 melanoma): > 100 µM
- TGI (SK-OV-3 ovarian): > 100 µM

SMILES: C/C(=N\Nc1nc2ccccc2[nH]1)c1cc2ccccc2cn1
- TGI (A549 NSCLC): > 100 µM
- TGI (CAKI-1 renal): 1.32 µM
- TGI (HCC-2998 colon): 3.46 µM
- TGI (HCT-15 colon): 2.51 µM
- TGI (HOP-92 NSCLC): 0.819 µM
- TGI (M14 melanoma): 0.357 µM
- TGI (SF-539 CNS): 0.764 µM
- TGI (SK-MEL-28 melanoma): 0.429 µM
- TGI (SK-MEL-5 melanoma): 1.6 µM
- TGI (SK-OV-3 ovarian): 12.7 µM

SMILES: NCCC1CN(C(=O)OCc2ccccc2)c2ccccc21 (stereo not given)
- TGI (A549 NSCLC): > 53.6 µM
- TGI (CAKI-1 renal): > 50.7 µM
- TGI (HCC-2998 colon): 33.9 µM
- TGI (HCT-15 colon): 14.5 µM
- TGI (HOP-92 NSCLC): 26.9 µM
- TGI (M14 melanoma): 27.4 µM
- TGI (SF-539 CNS): 14.4 µM
- TGI (SK-MEL-28 melanoma): 36 µM
- TGI (SK-MEL-5 melanoma): 24.7 µM
- TGI (SK-OV-3 ovarian): > 59.6 µM

SMILES: NC(=O)Cc1nc2c(=O)[nH]cnc2n1C1OC(CO)C(O)C1O (stereo not given)
- TGI (A549 NSCLC): > 100 µM
- TGI (CAKI-1 renal): > 100 µM
- TGI (HCC-2998 colon): > 100 µM
- TGI (HCT-15 colon): > 100 µM
- TGI (HOP-92 NSCLC): > 100 µM
- TGI (M14 melanoma): > 100 µM
- TGI (SF-539 CNS): > 100 µM
- TGI (SK-MEL-28 melanoma): > 100 µM
- TGI (SK-MEL-5 melanoma): > 100 µM
- TGI (SK-OV-3 ovarian): > 100 µM

SMILES: COc1ccc(-c2cc(C(O)C3CCCCN3)c3ccccc3n2)cc1 (stereo not given)
- TGI (A549 NSCLC): 27.8 µM
- TGI (CAKI-1 renal): 18.4 µM
- TGI (HCC-2998 colon): 3.7 µM
- TGI (HCT-15 colon): 34.2 µM
- TGI (HOP-92 NSCLC): 13.1 µM
- TGI (M14 melanoma): 4.61 µM
- TGI (SF-539 CNS): 23.5 µM
- TGI (SK-MEL-28 melanoma): 5.49 µM
- TGI (SK-MEL-5 melanoma): 17.2 µM
- TGI (SK-OV-3 ovarian): 27.3 µM

SMILES: CCN(CC)c1nc(N(C)C)c2ccccc2n1
- TGI (A549 NSCLC): > 100 µM
- TGI (CAKI-1 renal): > 100 µM
- TGI (HCC-2998 colon): 38.3 µM
- TGI (HCT-15 colon): > 100 µM
- TGI (HOP-92 NSCLC): > 100 µM
- TGI (M14 melanoma): 72.1 µM
- TGI (SF-539 CNS): 96.1 µM
- TGI (SK-MEL-28 melanoma): > 100 µM
- TGI (SK-MEL-5 melanoma): 35 µM
- TGI (SK-OV-3 ovarian): > 100 µM

SMILES: COC(=O)[C@@H]1CN(C(=O)c2ccccc2)C(=O)N1C(=O)OCc1ccccc1
- TGI (A549 NSCLC): > 100 µM
- TGI (CAKI-1 renal): > 100 µM
- TGI (HCC-2998 colon): > 100 µM
- TGI (HCT-15 colon): > 100 µM
- TGI (HOP-92 NSCLC): > 100 µM
- TGI (M14 melanoma): > 100 µM
- TGI (SF-539 CNS): > 100 µM
- TGI (SK-MEL-28 melanoma): > 100 µM
- TGI (SK-MEL-5 melanoma): > 100 µM
- TGI (SK-OV-3 ovarian): > 100 µM
